Test: Release (dissolution) profile of capsules, USP Apparatus 2 (paddle) at 50 rpm, 500 mL aqueous sodium phosphate 0.05 M, pH 6.8
Assay type: physicochemical
Conditions: for Release rate (percentage of Compound 1 released): Table 3b; for mean value (n =4) of % of Compound 1 released: Table 3g-1, Storage Time = 0; for mean value (n =4) of % of Compound 1 released / mean value (n = 41) of % of Compound 1 released: size 4 capsule 0.5 mg Compound 1, Poloxamer 188:food grade GMS 70:30; for mean value (n = 41) of % of Compound 1 released: Table 3g-2 first line (title: Storage Time = 2 weeks; values equal Table 3g-1)
Source text: USP Apparatus 2 (Paddle Apparatus) is described, for example, in the United States Pharmacopeial Convention, Feb. 1, 2012, Chapter <711> (“Dissolution”), incorporated by reference herein in its entirety. See http://www.usp.org/sites/default/files/usp_pdf/EN/USPNF/revisions/m99470-gc_711.pdf. The assembly from Apparatus 1 is used, except that a paddle formed from a blade and a shaft is used as the stirring element. The shaft is positioned so that its axis is not more than 2 mm from the vertical axis of the vessel at any point and rotates smoothly without significant wobble that could affect the results. The vertical center line of the blade passes through the axis of the shaft so that the bottom of the blade is flush with the bottom of the shaft. A distance of 25±2 mm between the bottom of the blade and the inside bottom of the vessel is maintained during the test. The metallic or suitably inert, rigid blade and shaft comprise a single entity. A suitable two-part detachable design may be used provided the assembly remains firmly engaged during the test. The paddle blade and shaft may be coated with a suitable coating so as to make them inert. The dosage unit is allowed to sink to the bottom of the vessel before rotation of the blade is started. A small, loose piece of nonreactive material, such as not more than a few turns of wire helix, may be attached to dosage units that would otherwise float. Other validated sinker devices may be used.
Unless otherwise specified, the release profiles for capsules were measured using USP Apparatus 2 (paddle).
All release profiles disclosed in Tables 3c-3p were measured with USP Apparatus 2 (paddle) at 50 rpm in 500 mL of aqueous sodium phosphate at a concentration of 0.05 M (pH=6.8). The values in a given table relate to capsules obtained from the same batch. Values shown represent mean values over a number of dissolution tests (“n” in each table) in each case.

- Release rate (percentage of Compound 1 released) (capsule 0.04 mg Compound 1, Poloxamer 188:food grade GMS 50:50, 4 wks storage (40° C.), 240 min): 70.3%
- Release rate (percentage of Compound 1 released) (capsule 0.04 mg Compound 1, Poloxamer 188:food grade GMS 50:50, 4 wks storage (40° C.), 360 min): 87.5%
- Release rate (percentage of Compound 1 released) (capsule 0.04 mg Compound 1, Poloxamer 188:food grade GMS 50:50, 4 wks storage (40° C.), 480 min): 90.9%
- Release rate (percentage of Compound 1 released) (capsule 0.04 mg Compound 1, Poloxamer 188:food grade GMS 50:50, 4 wks storage (40° C.), 600 min): 93.2%
- Release rate (percentage of Compound 1 released) (capsule 0.04 mg Compound 1, Poloxamer 188:food grade GMS 50:50, 4 wks storage (40° C.), 720 min): 95.0%
- Release rate (percentage of Compound 1 released) (capsule 0.04 mg Compound 1, Poloxamer 188:food grade GMS 50:50, 4 wks storage (40° C.), 735 min): 94.3%
- Release rate (percentage of Compound 1 released) (capsule 0.04 mg Compound 1, Poloxamer 188:food grade GMS 50:50, 18 hrs curing (50° C.), 30 min): 14.3%
- Release rate (percentage of Compound 1 released) (capsule 0.04 mg Compound 1, Poloxamer 188:food grade GMS 50:50, 18 hrs curing (50° C.), 60 min): 21.8%
- Release rate (percentage of Compound 1 released) (capsule 0.04 mg Compound 1, Poloxamer 188:food grade GMS 50:50, 18 hrs curing (50° C.), 120 min): 39.9%
- Release rate (percentage of Compound 1 released) (capsule 0.04 mg Compound 1, Poloxamer 188:food grade GMS 50:50, 18 hrs curing (50° C.), 180 min): 56.3%
- Release rate (percentage of Compound 1 released) (capsule 0.04 mg Compound 1, Poloxamer 188:food grade GMS 50:50, 18 hrs curing (50° C.), 240 min): 72.6%
- Release rate (percentage of Compound 1 released) (capsule 0.04 mg Compound 1, Poloxamer 188:food grade GMS 50:50, 18 hrs curing (50° C.), 360 min): 89.2%
- Release rate (percentage of Compound 1 released) (capsule 0.04 mg Compound 1, Poloxamer 188:food grade GMS 50:50, 18 hrs curing (50° C.), 480 min): 93.5%
- Release rate (percentage of Compound 1 released) (capsule 0.04 mg Compound 1, Poloxamer 188:food grade GMS 50:50, 18 hrs curing (50° C.), 600 min): 95.7%
- Release rate (percentage of Compound 1 released) (capsule 0.04 mg Compound 1, Poloxamer 188:food grade GMS 50:50, 18 hrs curing (50° C.), 720 min): 96.9%
- Release rate (percentage of Compound 1 released) (capsule 0.04 mg Compound 1, Poloxamer 188:food grade GMS 50:50, 18 hrs curing (50° C.), 735 min): 95.6%
- Release rate (percentage of Compound 1 released) (capsule 0.04 mg Compound 1, Poloxamer 188:food grade GMS 50:50, T = 0 (pre-curing), 30 min): 11.0%
- Release rate (percentage of Compound 1 released) (capsule 0.04 mg Compound 1, Poloxamer 188:food grade GMS 50:50, T = 0 (pre-curing), 60 min): 18.3%
- Release rate (percentage of Compound 1 released) (capsule 0.04 mg Compound 1, Poloxamer 188:food grade GMS 50:50, T = 0 (pre-curing), 120 min): 30.1%
- Release rate (percentage of Compound 1 released) (capsule 0.04 mg Compound 1, Poloxamer 188:food grade GMS 50:50, T = 0 (pre-curing), 180 min): 39.6%
- Release rate (percentage of Compound 1 released) (capsule 0.04 mg Compound 1, Poloxamer 188:food grade GMS 50:50, T = 0 (pre-curing), 240 min): 48.8%
- Release rate (percentage of Compound 1 released) (capsule 0.04 mg Compound 1, Poloxamer 188:food grade GMS 50:50, T = 0 (pre-curing), 360 min): 64.1%
- Release rate (percentage of Compound 1 released) (capsule 0.04 mg Compound 1, Poloxamer 188:food grade GMS 50:50, T = 0 (pre-curing), 480 min): 72.7%
- Release rate (percentage of Compound 1 released) (capsule 0.04 mg Compound 1, Poloxamer 188:food grade GMS 50:50, T = 0 (pre-curing), 600 min): 79.8%
- Release rate (percentage of Compound 1 released) (capsule 0.04 mg Compound 1, Poloxamer 188:food grade GMS 50:50, T = 0 (pre-curing), 720 min): 83.1%
- Release rate (percentage of Compound 1 released) (capsule 0.04 mg Compound 1, Poloxamer 188:food grade GMS 50:50, T = 0 (pre-curing), 735 min): 84.6%
- mean value (n =4) of % of Compound 1 released (30 min): 33.0%
- mean value (n =4) of % of Compound 1 released (45 min): 64.2%
- mean value (n =4) of % of Compound 1 released (60 min): 86.0%
- mean value (n = 41) of % of Compound 1 released (30 min): 33.0%
- mean value (n = 41) of % of Compound 1 released (45 min): 64.2%
- mean value (n = 41) of % of Compound 1 released (60 min): 86.0%
- release profile after curing and storage (capsule 0.04 mg Compound 1, Poloxamer 188:food grade GMS 50:50, cured 18 hours, one, two and four weeks post-curing (FIG. 6)): remained substantially the same
SMILES: O=C(O)COC[C@H]1CC[C@H](COC(=O)N(c2ccccc2)c2ccc(Cl)cc2)CC1 [Compound 1, 2-(((1r,4r)-4-(((4-chlorophenyl)(phenyl)carbamoyloxy)methyl)cyclohexyl)methoxy)acetic acid]
- stabilisation of release profile by curing (capsule with research grade GMS (lower monoester content) instead of food grade GMS): curing was not as effective in stabilizing the release profile
- release rate relative to immediate-release composition (capsules 0.5 mg Compound 1, Poloxamer 188:food grade GMS 70:30, 50:50 and 30:70 (FIGS. 8-10)): slower rate than the immediate-release composition

Reference: patent US12642771B2, “Compositions comprising PGI2-receptor agonists and processes for the preparation thereof” (Arena Pharmaceuticals, Inc., priority 2017, dated 2026)
